Broadly, the IC50 is the concentration that gives 50% inhibition. As usually defined, the Kd is the free concentration of one partner at which half of the binding sites on the other are occupied at equilibrium, for simple one-to-one binding.

The test system of assay [1] is U937 human histiocytic leukemia cell line. Briefly: Inhibition of TSQ induced necroptosis in U937 cells (CellTitre-Glo). The note with it: Homo sapiens, U-937, TSQ cocktail (TNF, Smac mimetic, Q-VD-OPh), 48 hours, read-out: Inhibition of TSQ-induced necroptosis (IC50 cell-based assay). Put shortly:
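Necroptosis was induced with TNF-Fc (100 ng/ml), Smac mimetic (500 nM) and Q-VD-OPh (10 μM) in 20000 U937 cells/well exposed to a 10-point, 3-fold compound series (top 36 μM, 0.3% DMSO). ATP luminescence read after 48 h; 4-parameter fit gave IC50. Parallel TSQ-free wells assessed compound toxicity.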

Assay [2] has as its target human RIPK1 (Homo sapiens (Human), UniProt Q13546). Briefly: KINOMEscan binding assay, human RIPK1. The note with it: equilibrium dissociation constant. In outline:
(§1)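 In this assay, compounds displace DNA- or phage-tagged kinase from an immobilized ligand, and eluted kinase is quantified by qPCR.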

The subject of assay [3] is U937 cells. The assay is described as follows: Counter screen: U937 cell viability without TSQ cocktail (off-target effect). Details: species or system human. The note with it: Homo sapiens, U-937, compound without TSQ cocktail, read-out: Off-target effect (IC50 cell-based assay). In outline: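 Off-target viability counter screen: compounds titrated 36 μM down 1:3 over 10 points (0.3% DMSO) on 20,000 U937 cells/well, no TNF/Smac mimetic/Q-VD-OPh added, 48 h incubation. ATP-based CellTiter-Glo luminescence, four-parameter logistic IC50.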

For assay [4], the target named is human MLKL (full length) (Homo sapiens (Human), UniProt Q8NB16). The assay is described as follows: KINOMEscan binding assay, human MLKL (full length). The note with it: equilibrium dissociation constant. Put shortly: as §1
Sequence of human MLKL (full length) (Q8NB16 whole entry): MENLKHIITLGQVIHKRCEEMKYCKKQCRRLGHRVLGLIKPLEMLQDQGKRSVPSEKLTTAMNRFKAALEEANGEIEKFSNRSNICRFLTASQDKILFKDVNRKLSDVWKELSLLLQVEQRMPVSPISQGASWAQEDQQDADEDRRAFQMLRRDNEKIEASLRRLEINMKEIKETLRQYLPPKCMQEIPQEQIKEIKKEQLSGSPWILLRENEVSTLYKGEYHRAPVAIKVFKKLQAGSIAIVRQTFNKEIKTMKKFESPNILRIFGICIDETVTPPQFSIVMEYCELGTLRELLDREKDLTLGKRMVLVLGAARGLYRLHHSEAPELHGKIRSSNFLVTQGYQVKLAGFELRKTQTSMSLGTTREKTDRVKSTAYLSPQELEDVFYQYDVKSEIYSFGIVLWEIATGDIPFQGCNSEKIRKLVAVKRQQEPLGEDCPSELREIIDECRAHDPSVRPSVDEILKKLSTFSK
Assay [5] addresses human RIPK3 (Homo sapiens (Human), UniProt Q9Y572). The assay is described as follows: KINOMEscan binding assay, human RIPK3. The settings on record: equilibrium dissociation constant. Put shortly:
as §1

Sequence of human RIPK1 (Q13546 whole entry): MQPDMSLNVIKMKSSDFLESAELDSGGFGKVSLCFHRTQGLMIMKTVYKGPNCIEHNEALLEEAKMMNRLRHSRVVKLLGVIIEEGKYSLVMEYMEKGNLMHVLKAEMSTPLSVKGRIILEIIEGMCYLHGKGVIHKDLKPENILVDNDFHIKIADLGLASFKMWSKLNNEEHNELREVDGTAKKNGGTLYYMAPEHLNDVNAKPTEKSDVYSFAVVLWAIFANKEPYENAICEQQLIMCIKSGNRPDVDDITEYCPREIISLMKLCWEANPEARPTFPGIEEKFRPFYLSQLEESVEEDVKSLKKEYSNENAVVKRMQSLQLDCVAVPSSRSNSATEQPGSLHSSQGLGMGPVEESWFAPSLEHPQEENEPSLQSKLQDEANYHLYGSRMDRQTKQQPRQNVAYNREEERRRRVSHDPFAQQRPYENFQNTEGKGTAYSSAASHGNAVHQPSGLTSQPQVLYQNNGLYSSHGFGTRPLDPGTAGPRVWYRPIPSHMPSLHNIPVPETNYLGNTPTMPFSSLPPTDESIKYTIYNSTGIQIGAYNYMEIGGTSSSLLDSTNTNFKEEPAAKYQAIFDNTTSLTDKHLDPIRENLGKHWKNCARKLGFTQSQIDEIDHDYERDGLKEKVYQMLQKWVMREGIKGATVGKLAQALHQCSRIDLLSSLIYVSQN
Sequence of human RIPK3 (Q9Y572 whole entry): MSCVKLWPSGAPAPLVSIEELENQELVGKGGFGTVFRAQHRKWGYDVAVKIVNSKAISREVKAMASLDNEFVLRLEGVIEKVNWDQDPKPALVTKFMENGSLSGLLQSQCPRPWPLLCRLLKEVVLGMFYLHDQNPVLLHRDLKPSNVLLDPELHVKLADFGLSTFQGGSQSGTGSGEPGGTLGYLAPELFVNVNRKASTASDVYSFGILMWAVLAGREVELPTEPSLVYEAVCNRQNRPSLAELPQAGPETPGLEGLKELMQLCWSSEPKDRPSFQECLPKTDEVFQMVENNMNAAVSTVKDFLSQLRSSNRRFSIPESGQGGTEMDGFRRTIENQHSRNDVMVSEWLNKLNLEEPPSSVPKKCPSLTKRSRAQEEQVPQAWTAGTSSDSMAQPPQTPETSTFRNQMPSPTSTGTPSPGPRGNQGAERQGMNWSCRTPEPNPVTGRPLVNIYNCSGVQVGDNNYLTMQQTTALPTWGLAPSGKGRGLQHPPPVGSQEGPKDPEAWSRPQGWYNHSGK

With `C[C@H](Oc1cc(-c2nn(C)c3c(-c4cnn(C5CNC5)c4)cnc(N)c23)ccc1NS(=O)(=O)C(F)F)c1ccc(F)cc1` [Compound 94, (S)-N-(4-(4-amino-7-(1-(azetidin-3-yl)-1H-pyrazol-4-yl)-1-methyl-1H-pyrazolo[4,3-c]pyridin-3-yl)-2-(1-(4-fluorophenyl)ethoxy)phenyl)-1,1-difluoromethanesulfonamide], the IC50 in assay [1] was 10 to 1000 nM; in assay [3], above 10000 nM. For the same compound, the dissociation constant (Kd) in assay [2] was above 10000 nM; in assay [4], below 1 nM; in assay [5] it was above 10000 nM.
Take `CC1CNCC(n2cc(-c3cnc(N)c4c(-c5ccc(NS(=O)(=O)C(F)F)c(O[C@@H](C)c6ccc(F)cc6)c5)nn(C)c34)cn2)C1` (stereo partly drawn) [Compound 95, N-(4-(4-amino-1-methyl-7-(1-(5-methylpiperidin-3-yl)-1H-pyrazol-4-yl)-1H-pyrazolo[4,3-c]pyridin-3-yl)-2-((S)-1-(4-fluorophenyl)ethoxy)phenyl)-1,1-difluoromethanesulfonamide]: the 50% inhibitory concentration (IC50) in assay [1] was 10 to 1000 nM; in assay [3] it was above 10000 nM. Moreover, the Kd is above 10000 nM in assay [2], 1 to 100 nM in assay [4] and above 10000 nM in assay [5].
Turning to `C[C@H](Oc1cc(-c2nn(C)c3c(-c4cnn(C5(C#N)CC5)c4)cnc(N)c23)ccc1NS(=O)(=O)C(F)F)c1ccc(F)cc1` [Compound 96, (S)-N-(4-(4-amino-7-(1-(1-cyanocyclopropyl)-1H-pyrazol-4-yl)-1-methyl-1H-pyrazolo[4,3-c]pyridin-3-yl)-2-(1-(4-fluorophenyl)ethoxy)phenyl)-1,1-difluoromethanesulfonamide], the 50% inhibitory concentration (IC50) in assay [1] was 10 to 1000 nM; in assay [3], above 10000 nM. Besides, the results for the Kd in assay [2], in assay [4] and in assay [5] were above 10000 nM, below 1 nM and above 10000 nM, respectively.
As for `C[C@H](Oc1cc(-c2nn(C)c3c(-c4cnn(CCN(C)C)c4)cnc(N)c23)ccc1NS(=O)(=O)C(F)F)c1ccc(F)cc1` [Compound 100, (S)-N-(4-(4-amino-7-(1-(2-(dimethylamino)ethyl)-1H-pyrazol-4-yl)-1-methyl-1H-pyrazolo[4,3-c]pyridin-3-yl)-2-(1-(4-fluorophenyl)ethoxy)phenyl)-1,1-difluoromethanesulfonamide], the IC50 in assay [1] was below 10 nM; in assay [3] it was above 10000 nM. Also, the results for the Kd in assay [2], in assay [4] and in assay [5] were above 10000 nM, below 1 nM and above 10000 nM, respectively.
For the compound `CC(C)N(C)CC(C)n1cc(-c2cnc(N)c3c(-c4ccc(NS(=O)(=O)C(F)F)c(O[C@@H](C)c5ccc(F)cc5)c4)nn(C)c23)cn1` (stereo partly drawn) [Compound 101, N-(4-(4-amino-7-(1-(1-(isopropyl(methyl)amino)propan-2-yl)-1H-pyrazol-4-yl)-1-methyl-1H-pyrazolo[4,3-c]pyridin-3-yl)-2-((S)-1-(4-fluorophenyl)ethoxy)phenyl)-1,1-difluoromethanesulfonamide], the IC50 in assay [1] is below 10 nM; in assay [3], above 10000 nM. In addition, the figures for the Kd in assay [2], in assay [4] and in assay [5] were above 10000 nM, below 1 nM and above 10000 nM, respectively.
In the case of `C[C@H](Oc1cc(-c2nn(C)c3c(-c4cnc(N5CCN(C)CC5)nc4)cnc(N)c23)ccc1NS(=O)(=O)C(F)F)c1ccc(F)cc1` [Compound 105, (S)-N-(4-(4-amino-1-methyl-7-(2-(4-methylpiperazin-1-yl)pyrimidin-5-yl)-1H-pyrazolo[4,3-c]pyridin-3-yl)-2-(1-(4-fluorophenyl)ethoxy)phenyl)-1,1-difluoromethanesulfonamide], the IC50 in assay [1] was 10 to 1000 nM; in assay [3] it was above 10000 nM. Also, the values for the dissociation constant (Kd) in assay [2], in assay [4] and in assay [5] were above 10000 nM, below 1 nM and above 10000 nM, respectively.
In the case of `C[C@H](Oc1cc(-c2nn(C)c3c(-c4cnc(N(C)C)nc4)cnc(N)c23)ccc1NS(=O)(=O)C(F)F)c1ccc(F)cc1` [Compound 106, (S)-N-(4-(4-amino-7-(2-(dimethylamino)pyrimidin-5-yl)-1-methyl-1H-pyrazolo[4,3-c]pyridin-3-yl)-2-(1-(4-fluorophenyl)ethoxy)phenyl)-1,1-difluoromethanesulfonamide], the IC50 in assay [1] was 10 to 1000 nM; in assay [3], above 10000 nM. Also, the equilibrium dissociation constant (Kd) in assay [2] was above 10000 nM; in assay [4], 1 to 100 nM; in assay [5] it was above 10000 nM.
As for `C[C@H](Oc1cc(-c2nn(C)c3c(-c4ccc(N5CCN(C)CC5)nc4)cnc(N)c23)ccc1NS(=O)(=O)C(F)F)c1ccc(F)cc1` [Compound 107, (S)-N-(4-(4-amino-1-methyl-7-(6-(4-methylpiperazin-1-yl)pyridin-3-yl)-1H-pyrazolo[4,3-c]pyridin-3-yl)-2-(1-(4-fluorophenyl)ethoxy)phenyl)-1,1-difluoromethanesulfonamide], the IC50 in assay [1] was 10 to 1000 nM; in assay [3], above 10000 nM. Further, the figures for the Kd in assay [2], in assay [4] and in assay [5] were above 10000 nM, below 1 nM and above 10000 nM, respectively.
Turning to `C[C@H](Oc1cc(-c2nn(C)c3c(-c4cnc(N)nc4)cnc(N)c23)ccc1NS(=O)(=O)C(F)F)c1ccc(F)cc1` [Compound 108, (S)-N-(4-(4-amino-7-(2-aminopyrimidin-5-yl)-1-methyl-1H-pyrazolo[4,3-c]pyridin-3-yl)-2-(1-(4-fluorophenyl)ethoxy)phenyl)-1,1-difluoromethanesulfonamide], the IC50 in assay [1] was 10 to 1000 nM; in assay [3], above 10000 nM. Further, the Kd in assay [2] is above 10000 nM; in assay [4], below 1 nM; in assay [5] it was above 10000 nM.
Consider `COC[C@H](Oc1cc(-c2nn(C)c3c(-c4cnn(C5CCOCC5)c4)cnc(N)c23)ccc1NS(=O)(=O)C(F)F)c1ccc(F)cc1` [Compound 111, (R)—N-(4-(4-amino-1-methyl-7-(1-(tetrahydro-2H-pyran-4-yl)-1H-pyrazol-4-yl)-1H-pyrazolo[4,3-c]pyridin-3-yl)-2-(1-(4-fluorophenyl)-2-methoxyethoxy)phenyl)-1,1-difluoromethanesulfonamide], for which the IC50 in assay [1] was 10 to 1000 nM; in assay [3], above 10000 nM. The Kd is above 10000 nM in assay [2], 1 to 100 nM in assay [4] and above 10000 nM in assay [5].
`C[C@H](Oc1cc(-c2nn(C)c3c(-c4ccc(N5CCOCC5)nc4)cnc(N)c23)ccc1NS(=O)(=O)C(F)F)c1ccc(F)cc1` [Compound 115, (S)-N-(4-(4-amino-1-methyl-7-(6-morpholinopyridin-3-yl)-1H-pyrazolo[4,3-c]pyridin-3-yl)-2-(1-(4-fluorophenyl)ethoxy)phenyl)-1,1-difluoromethanesulfonamide]: the IC50 was 10 to 1000 nM in assay [1] and above 10000 nM in assay [3]. The Kd in assay [2] is above 10000 nM; in assay [4] it was 1 to 100 nM; in assay [5], above 10000 nM.
In the case of `C[C@H](Oc1cc(-c2nn(C)c3c(-c4ccc(C(F)(F)F)nc4)cnc(N)c23)ccc1NS(=O)(=O)C(F)F)c1ccc(F)cc1` [Compound 117, (S)-N-(4-(4-amino-1-methyl-7-(6-(trifluoromethyl)pyridin-3-yl)-1H-pyrazolo[4,3-c]pyridin-3-yl)-2-(1-(4-fluorophenyl)ethoxy)phenyl)-1,1-difluoromethanesulfonamide], the IC50 is 10 to 1000 nM in assay [1] and above 10000 nM in assay [3]. Moreover, the Kd in assay [2] is above 10000 nM; in assay [4], 1 to 100 nM; in assay [5], above 10000 nM.

These data come from patent US20250059188A1, “ARYLSULPHONAMIDE COMPOUNDS” (Anaxis Pharma Pty Ltd, priority 2021, published 2025).
